Toxic doses and inconclusive results are not listed. The calls were made as follows: active = survival T/C of 150% or more; inactive = T/C below 125% in these data.
Test system: BDF1 mice, P388 leukemia ip, median survival T/C
Assay: NCI In Vivo Anticancer Drug Screen. Data for tumor model P388 Leukemia (intraperitoneal) in B6D2F1 (BDF1) mice
Conditions: endpoint: median survival time, higher = longer survival
Outline: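 Compound-treated tumour-bearing mice were compared with vehicle-treated controls. Survival was recorded, and the value is the treated-group measurement divided by the control-group measurement (T/C).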

[1] = dose: 100.0 mg/kg/injection, schedule: Q01DX009 (ip), vehicle: saline with Tween-80
[2] = dose: 200.0 mg/kg/injection, schedule: Q01DX009 (ip), vehicle: saline with Tween-80
[3] = dose: 100.0 mg/kg/injection, schedule: Q04DX003 (ip), vehicle: saline with Tween-80
[4] = dose: 200.0 mg/kg/injection, schedule: Q04DX003 (ip), vehicle: saline with Tween-80
[5] = dose: 400.0 mg/kg/injection, schedule: Q04DX003 (ip), vehicle: saline with Tween-80
[6] = dose: 25.0 mg/kg/injection, schedule: Q04DX003 (ip), vehicle: saline with Tween-80
[7] = dose: 50.0 mg/kg/injection, schedule: Q04DX003 (ip), vehicle: saline with Tween-80
[8] = dose: 100.0 mg/kg/injection, schedule: Q04DX003 (ip), vehicle: saline

Measured: T/C

C=C(C)C12CC(COC(=O)c3ccccc3)C34OC5(OC1C3C1OC1(CO)C(O)C1(O)C(OC(=O)c3ccccc3)C(C)C(C(C)CCCCCCC5O)C14)O2 (stereo not drawn)
active: dose: 0.75 mg/kg/injection, schedule: Q01DX009 (ip), vehicle: saline 150 % of control | dose: 0.8 micrograms/kg/injection, schedule: Q01DX009 (ip), vehicle: saline with Tween-80 162 % of control | dose: 1.6 micrograms/kg/injection, schedule: Q01DX009 (ip), vehicle: saline + alcohol 238 % of control | dose: 1.6 micrograms/kg/injection, schedule: Q01DX009 (ip), vehicle: saline with Tween-80 175 % of control | dose: 3.1 micrograms/kg/injection, schedule: Q01DX009 (ip), vehicle: saline + alcohol 153 % of control | dose: 3.1 micrograms/kg/injection, schedule: Q01DX009 (ip), vehicle: saline with Tween-80 175 % of control | dose: 6.3 micrograms/kg/injection, schedule: Q01DX009 (ip), vehicle: saline + alcohol 175 % of control | dose: 12.5 micrograms/kg/injection, schedule: Q01DX009 (ip), vehicle: saline + alcohol 179 % of control
inactive: dose: 0.25 mg/kg/injection, schedule: Q01DX009 (ip), vehicle: saline 113 % of control | dose: 0.5 mg/kg/injection, schedule: Q01DX009 (ip), vehicle: saline 122 % of control | dose: 0.5 micrograms/kg/injection, schedule: Q01DX009 (ip), vehicle: saline + alcohol 111 % of control | dose: 0.8 micrograms/kg/injection, schedule: Q01DX009 (ip), vehicle: gum acacia 100 % of control | dose: 0.8 micrograms/kg/injection, schedule: Q01DX009 (ip), vehicle: saline + alcohol 124 % of control | dose: 1.0 micrograms/kg/injection, schedule: Q01DX009 (ip), vehicle: saline + alcohol 108 % of control | dose: 2.0 micrograms/kg/injection, schedule: Q01DX009 (ip), vehicle: saline + alcohol 104 % of control | dose: 6.3 micrograms/kg/injection, schedule: Q01DX009 (ip), vehicle: gum acacia 120 % of control | dose: 12.5 micrograms/kg/injection, schedule: Q01DX009 (ip), vehicle: gum acacia 118 % of control | dose: 25.0 micrograms/kg/injection, schedule: Q01DX009 (ip), vehicle: gum acacia 120 % of control | dose: 50.0 micrograms/kg/injection, schedule: Q01DX009 (ip), vehicle: gum acacia 124 % of control

CCOC(=O)c1cc2nc3ccccn3c(=O)c2cc1N
inactive: [1] 100 % of control | [2] 91 % of control

O=C(O)c1cc2c3c(c1)CCCN3CCC2
inactive: [3] 90 % of control | [4] 100 % of control | [5] 90 % of control

CC(=O)O[C@H]1CC[C@H]2[C@@H]3CCC4=CC(=O)CC[C@]4(C)[C@H]3[C@H](OC(C)=O)C[C@]12C
inactive: [3] 100 % of control | [4] 95 % of control | [5] 109 % of control

CC(C)CC(CC(C)C)NCC(C)OC(=O)c1ccc(N)cc1 (stereo not drawn)
inactive: dose: 6.25 mg/kg/injection, schedule: Q01DX009 (ip), vehicle: saline with Tween-80 104 % of control | dose: 6.25 mg/kg/injection, schedule: Q04DX003 (ip), vehicle: saline with Tween-80 107 % of control | dose: 12.5 mg/kg/injection, schedule: Q01DX009 (ip), vehicle: saline with Tween-80 93 % of control | dose: 12.5 mg/kg/injection, schedule: Q04DX003 (ip), vehicle: saline with Tween-80 114 % of control | dose: 25.0 mg/kg/injection, schedule: Q01DX009 (ip), vehicle: saline with Tween-80 104 % of control | [6] 114 % of control | [7] 114 % of control

CCCCCCCCCCC(=O)[O][Sn]([CH](C)C)([CH](C)C)[CH](C)C
inactive: dose: 12.5 mg/kg/injection, schedule: Q01DX009 (ip), vehicle: saline + Tween-80 + alcohol 109 % of control | dose: 25.0 mg/kg/injection, schedule: Q01DX009 (ip), vehicle: saline + Tween-80 + alcohol 119 % of control

CCCCCCNc1c(F)c(C#N)c(F)c(F)c1C#N
inactive: dose: 50.0 mg/kg/injection, schedule: Q01DX009 (ip), vehicle: saline with Tween-80 103 % of control | [1] 93 % of control | [2] 110 % of control

O=S(=O)(O)c1ccc(Br)cc1
inactive: dose: 100.0 mg/kg/injection, schedule: Q01DX009 (ip), vehicle: saline 92 % of control | [8] 115 % of control | dose: 200.0 mg/kg/injection, schedule: Q01DX009 (ip), vehicle: saline 107 % of control | dose: 200.0 mg/kg/injection, schedule: Q04DX003 (ip), vehicle: saline 110 % of control | dose: 400.0 mg/kg/injection, schedule: Q01DX009 (ip), vehicle: saline 100 % of control | dose: 400.0 mg/kg/injection, schedule: Q04DX003 (ip), vehicle: saline 115 % of control

Cc1cc(O)c2c(c1)C(=O)C=CC2=O
inactive: dose: 0.12 mg/kg/injection, schedule: Q01DX009 (ip), vehicle: other 107 % of control | dose: 0.25 mg/kg/injection, schedule: Q01DX009 (ip), vehicle: other 101 % of control | dose: 0.5 mg/kg/injection, schedule: Q01DX009 (ip), vehicle: other 117 % of control | dose: 0.54 mg/kg/injection, schedule: Q01DX009 (ip), vehicle: alcohol 120 % of control | dose: 0.82 mg/kg/injection, schedule: Q01DX009 (ip), vehicle: alcohol 110 % of control | dose: 1.0 mg/kg/injection, schedule: Q01DX009 (ip), vehicle: other 103 % of control | dose: 1.25 mg/kg/injection, schedule: Q01DX009 (ip), vehicle: alcohol 106 % of control | dose: 1.8 mg/kg/injection, schedule: Q01DX009 (ip), vehicle: alcohol 102 % of control | dose: 2.0 mg/kg/injection, schedule: Q01DX009 (ip), vehicle: other 101 % of control | dose: 2.5 mg/kg/injection, schedule: Q01DX009 (ip), vehicle: alcohol 121 % of control

N#[N+]N=c1c(=NN=[N-])c(=O)c2ccccc2c1=O
inactive: dose: 3.0 mg/kg/injection, schedule: Q01DX009 (ip), vehicle: saline with Tween-80 90 % of control | dose: 6.0 mg/kg/injection, schedule: Q01DX009 (ip), vehicle: saline with Tween-80 87 % of control | dose: 12.0 mg/kg/injection, schedule: Q01DX009 (ip), vehicle: saline with Tween-80 95 % of control

CCCCC(CCC)(CCN)CCCC
inactive: dose: 1.0 mg/kg/injection, schedule: Q01DX009 (ip), vehicle: Klucel (hydroxypropylcellulose) (HPC) 100 % of control | dose: 2.0 mg/kg/injection, schedule: Q01DX009 (ip), vehicle: Klucel (hydroxypropylcellulose) (HPC) 110 % of control | dose: 4.0 mg/kg/injection, schedule: Q01DX009 (ip), vehicle: Klucel (hydroxypropylcellulose) (HPC) 105 % of control | dose: 8.0 mg/kg/injection, schedule: Q01DX009 (ip), vehicle: Klucel (hydroxypropylcellulose) (HPC) 115 % of control

NC(COc1ccccc1)Cc1ccccc1 (stereo not drawn)
inactive: [6] 113 % of control | dose: 25.0 mg/kg/injection, schedule: Q04DX003 (ip), vehicle: suspension in saline 90 % of control | [7] 123 % of control | dose: 50.0 mg/kg/injection, schedule: Q04DX003 (ip), vehicle: suspension in saline 90 % of control | [3] 105 % of control | [8] 109 % of control | dose: 100.0 mg/kg/injection, schedule: Q04DX003 (ip), vehicle: suspension in saline 98 % of control

Cc1c(Cl)cc(Cl)c(N)c1Cl
inactive: [4] 100 % of control | [5] 100 % of control

CP(c1ccccc1)c1ccccc1
inactive: dose: 50.0 mg/kg/injection, schedule: Q01DX009 (ip), vehicle: Klucel (hydroxypropylcellulose) (HPC) 109 % of control | dose: 50.0 mg/kg/injection, schedule: Q04DX003 (ip), vehicle: Klucel (hydroxypropylcellulose) (HPC) 113 % of control | dose: 100.0 mg/kg/injection, schedule: Q04DX003 (ip), vehicle: Klucel (hydroxypropylcellulose) (HPC) 113 % of control | dose: 133.0 mg/kg/injection, schedule: Q01DX009 (ip), vehicle: Klucel (hydroxypropylcellulose) (HPC) 100 % of control | dose: 200.0 mg/kg/injection, schedule: Q01DX009 (ip), vehicle: Klucel (hydroxypropylcellulose) (HPC) 107 % of control | dose: 200.0 mg/kg/injection, schedule: Q04DX003 (ip), vehicle: Klucel (hydroxypropylcellulose) (HPC) 104 % of control | dose: 300.0 mg/kg/injection, schedule: Q01DX009 (ip), vehicle: Klucel (hydroxypropylcellulose) (HPC) 123 % of control

From PubChem BioAssay AID328 (DTP/NCI, 2004)
